# According to PubChem BioAssay AID1963963 (Molecular Pharmacology Branch, DTP, NCI, 2024):
# System: 958667-338-R-J2-PDC tumor spheroids viability
# Assay: Anticancer human tumor 958667-338-R-J2-PDC patient-derived colon adenocarcinoma cell line growth inhibition [PI3K]
# Conditions: spheroids with HUVEC and MSC; for IC50: curve of first compound; for viability, T/C: stronger effect = lower value
# Description: Combinatorial screen of targeted agents with the PI3K inhibitors inavolisib, alpelisib, duvelisib, and copanlisib in multi-cell type tumor spheroids
# A high-throughput screen of multi-cell type tumor spheroids was designed to identify active combinations of targeted small molecules and PI3K pathway inhibitors. Complex spheroids include a stromal component modeled by human endothelial cells (HUVEC) and fibroblasts modeled by human mesenchymal stem cells (MSCs). The concentration ranges selected for each drug and investigational agent were based upon clinically achievable concentrations if the clinical Cmax of the agent was known.
# Compounds. The drugs and investigational agents: inavolisib (NSC800729), alpelisib (NSC765974), duvelisib (NSC772469), copanlisib (NSC816437), ipatasertib (NSC767898), afuresertib (NSC778305), talazoparib (NSC767125), sapanisertib (NSC764658), selumetinib (NSC741078), tovorafenib (DAY101, NSC766906), vemurafenib (NSC761431), ravoxertinib (NSC781343), sotorasib (NSC818433), MRTX1133 (NSC 836407), abemaciclib (NSC 768073), palbociclib (NSC758247), venetoclax (NSC 766270), SY5609 (NSC837396), enzalutamide (NSC755605), and darolutamide (NSC825331), were obtained from the National Cancer Institute (NCI) Developmental Therapeutics Program Chemical Repository. The FDA-approved anticancer drug set is available from the NCI Developmental Therapeutics Program. […] The stock solutions were prepared in dimethyl sulfoxide (DMSO, Sigma-Aldrich, St. Louis, MO, cat. D2650) at 800-fold the tested concentration and stored at -70 degrees C prior to their use. All drugs and investigational agents were tested over a range starting from a high concentration at or near the clinical Cmax and decreasing in half-log increments. If the clinical Cmax for an agent had not been determined, the highest concentration tested was 10 microM.
# Cell Culture. All cells were maintained in an incubator at 37 degrees C and 5% CO2 with 95% humidity. The PDC lines were cultured according to standard operating procedures established by the NCI PDMR (https://pdmr.cancer.gov/sops/default.htm). All PDCs were thawed and cultured in Matrigel-coated flasks prepared with a working solution of 1X Ham's F-12 nutrient mix, without supplementation (Invitrogen, Waltham, MA, cat. 11765054), 100 U/mL penicillin-streptomycin (Invitrogen, cat. 15140122), and 2.5% Matrigel (Corning Inc., Corning, NY, cat. 354248) for the first three passages. The 354836-022-R-J1-PDC, 475296-252-R-J1-PDC, and 997726-040-R-J2-PDC lines were cultured in 6A media, which includes advanced DMEM/F-12 (Thermo Fisher Scientific, cat. 12634028), 10 mM HEPES (Thermo Fisher Scientific, cat. 15630080), 1X GlutaMAX supplement (Thermo Fisher Scientific, cat. 35050061), 0.1 mg/mL primocin (InvivoGen, San Diego, CA, cat. ant-pm-2), 10% defined fetal bovine serum, heat inactivated (HyClone Laboratories Inc., Logan, UT, cat. SH30070.03HI), 50% L-WRN conditioned media (ATCC, cat. CRL-3276), 1.25 mM N-Acetyl-L-cysteine (Sigma-Aldrich, cat. A9165), 10 mM nicotinamide (Sigma-Aldrich, cat. N0636), 1X B-27 supplement (Thermo Fisher Scientific, cat. 17504044), 1X N-2 supplement (Thermo Fisher Scientific, cat. 17502048), and 10 microM Y-27632 dihydrochloride (Tocris Bioscience, Bristol, United Kingdom, cat. 1254). The 624824-186-R-J2-PDC line was cultured in 6C/Colon 1B media, which includes all 6A media components plus 50 ng/mL human EGF recombinant protein (Thermo Fisher Scientific, cat. PHG0311). […]
# 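Also: spheroids exposed to compounds for seven days before readout.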
smiles,measurement,setting,value
CCN1CCN(Cc2ccc(Nc3ncc(F)c(-c4cc(F)c5nc(C)n(C(C)C)c5c4)n3)nc2)CC1 + CC(Nc1ncnc2nc[nH]c12)c1cc2cccc(Cl)c2c(=O)n1-c1ccccc1,IC50,second compound 0.0316 µM,> 1 µM
same,IC50,second compound 0.1 µM,> 1 µM
same,IC50,second compound 0.316 µM,> 1 µM
same,IC50,second compound 1 µM,> 1 µM
same,IC50,second compound 3.16 µM,> 1 µM
same,IC50,second compound 10 µM,> 1 µM
same,"viability, T/C","second compound 0.0316 µM, first compound 0.00316 µM",91.2%
same,"viability, T/C","second compound 0.0316 µM, first compound 0.01 µM",98.2%
same,"viability, T/C","second compound 0.0316 µM, first compound 0.0316 µM",98.8%
same,"viability, T/C","second compound 0.0316 µM, first compound 0.1 µM",76.2%
same,"viability, T/C","second compound 0.0316 µM, first compound 0.316 µM",66.1%
same,"viability, T/C","second compound 0.0316 µM, first compound 1 µM",63.4%
same,"viability, T/C","second compound 0.1 µM, first compound 0.00316 µM",87.2%
same,"viability, T/C","second compound 0.1 µM, first compound 0.01 µM",88.9%
same,"viability, T/C","second compound 0.1 µM, first compound 0.0316 µM",87.3%
same,"viability, T/C","second compound 0.1 µM, first compound 0.1 µM",83%
same,"viability, T/C","second compound 0.1 µM, first compound 0.316 µM",68.8%
same,"viability, T/C","second compound 0.1 µM, first compound 1 µM",65.2%
same,"viability, T/C","second compound 0.316 µM, first compound 0.00316 µM",89.2%
same,"viability, T/C","second compound 0.316 µM, first compound 0.01 µM",97%
same,"viability, T/C","second compound 0.316 µM, first compound 0.0316 µM",82.2%
same,"viability, T/C","second compound 0.316 µM, first compound 0.1 µM",70.8%
same,"viability, T/C","second compound 0.316 µM, first compound 0.316 µM",71.4%
same,"viability, T/C","second compound 0.316 µM, first compound 1 µM",71.2%
same,"viability, T/C","second compound 1 µM, first compound 0.00316 µM",102%
same,"viability, T/C","second compound 1 µM, first compound 0.01 µM",71.1%
same,"viability, T/C","second compound 1 µM, first compound 0.0316 µM",86.2%
same,"viability, T/C","second compound 1 µM, first compound 0.1 µM",66.1%
same,"viability, T/C","second compound 1 µM, first compound 0.316 µM",69%
same,"viability, T/C","second compound 1 µM, first compound 1 µM",66.2%
same,"viability, T/C","second compound 3.16 µM, first compound 0.00316 µM",108%
same,"viability, T/C","second compound 3.16 µM, first compound 0.01 µM",89.7%
same,"viability, T/C","second compound 3.16 µM, first compound 0.0316 µM",84%
same,"viability, T/C","second compound 3.16 µM, first compound 0.1 µM",65.5%
same,"viability, T/C","second compound 3.16 µM, first compound 0.316 µM",64%
same,"viability, T/C","second compound 3.16 µM, first compound 1 µM",55.9%
same,"viability, T/C","second compound 10 µM, first compound 0.00316 µM",90%
same,"viability, T/C","second compound 10 µM, first compound 0.01 µM",82.8%
same,"viability, T/C","second compound 10 µM, first compound 0.0316 µM",77.8%
same,"viability, T/C","second compound 10 µM, first compound 0.1 µM",57.8%
same,"viability, T/C","second compound 10 µM, first compound 0.316 µM",57.8%
same,"viability, T/C","second compound 10 µM, first compound 1 µM",53.9%
